Source: patent US10052320B2, “Substituted quinoxalines as FGFR kinase inhibitors” (ASTEX THERAPEUTICS LIMITED, priority 2011, dated 2018)
Read-outs that look alike come from different tables or passages of the source.

Key:
[1] = system: Ba/F3-Flt3-transfected cells in the presence of 10 ng/ml murine IL3; experiment: Ba/F3-Flt3 (plus IL3) cellular proliferation counterscreen, Alamar Blue; assay type: cell-based; details: for IC50: Mus musculus, read-out: BAF3-FLT3 (PLUS IL3) 384 well pIC50 (converted)
KDR (h) (VEGFR2) = KDR (h) (VEGFR2) (Homo sapiens, UniProt P35968); experiment: KDR (VEGFR2) (enzymatic assay), TR-FRET; assay type: biochemical
Sequence of KDR (h) (VEGFR2) (P35968 20-1356): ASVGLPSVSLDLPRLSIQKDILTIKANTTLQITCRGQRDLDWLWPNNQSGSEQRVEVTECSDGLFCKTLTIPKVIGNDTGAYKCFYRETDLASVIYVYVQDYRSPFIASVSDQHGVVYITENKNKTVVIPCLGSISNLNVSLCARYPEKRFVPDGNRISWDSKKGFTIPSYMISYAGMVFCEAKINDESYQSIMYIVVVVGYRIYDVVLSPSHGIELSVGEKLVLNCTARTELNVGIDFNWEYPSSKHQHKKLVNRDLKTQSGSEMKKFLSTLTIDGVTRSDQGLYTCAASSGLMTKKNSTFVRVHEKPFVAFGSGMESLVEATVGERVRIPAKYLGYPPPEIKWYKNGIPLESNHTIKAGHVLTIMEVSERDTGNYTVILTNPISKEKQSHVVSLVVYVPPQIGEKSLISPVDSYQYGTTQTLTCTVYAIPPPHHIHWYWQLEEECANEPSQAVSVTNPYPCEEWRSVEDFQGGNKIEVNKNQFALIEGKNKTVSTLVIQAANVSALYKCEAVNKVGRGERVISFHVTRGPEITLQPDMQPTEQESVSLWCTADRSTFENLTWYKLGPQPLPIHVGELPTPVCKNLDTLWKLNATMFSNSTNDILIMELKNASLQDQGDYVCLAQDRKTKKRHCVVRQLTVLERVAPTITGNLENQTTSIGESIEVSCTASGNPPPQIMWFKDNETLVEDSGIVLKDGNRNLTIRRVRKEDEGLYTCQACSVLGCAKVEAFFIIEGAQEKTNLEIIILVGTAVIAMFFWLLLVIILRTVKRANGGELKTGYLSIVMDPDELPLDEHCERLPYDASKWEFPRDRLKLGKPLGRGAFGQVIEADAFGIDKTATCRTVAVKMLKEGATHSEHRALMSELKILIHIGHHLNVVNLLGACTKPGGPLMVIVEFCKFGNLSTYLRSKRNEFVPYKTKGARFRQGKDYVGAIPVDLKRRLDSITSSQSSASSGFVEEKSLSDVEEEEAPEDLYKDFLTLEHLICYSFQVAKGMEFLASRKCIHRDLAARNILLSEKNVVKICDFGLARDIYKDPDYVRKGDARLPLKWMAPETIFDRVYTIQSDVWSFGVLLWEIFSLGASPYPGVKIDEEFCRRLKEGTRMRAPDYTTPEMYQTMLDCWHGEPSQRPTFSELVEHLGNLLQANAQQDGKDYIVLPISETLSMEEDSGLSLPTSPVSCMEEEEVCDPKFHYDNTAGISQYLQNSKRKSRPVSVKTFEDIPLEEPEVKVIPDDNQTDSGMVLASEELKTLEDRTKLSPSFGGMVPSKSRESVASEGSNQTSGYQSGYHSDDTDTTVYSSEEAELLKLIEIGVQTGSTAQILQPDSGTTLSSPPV
In short: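 First, kinase (150 ng/ml), Btn-Flt3 (500 nM), ATP (3 μM) and compound (1% DMSO) react 120 min at RT in pH 7.5 HEPES/6 mM MnCl2. Next, EDTA with Eu-anti-P-Tyr and SA-XL-665 stops it for 60 min. Finally, TR-FRET is read as RFU.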

FGFR4 (h) = FGFR4 (h) (Homo sapiens, UniProt P22455); experiment: FGFR4 (enzymatic assay), TR-FRET; assay type: biochemical; details: read-out: FGFR 4 pIC50 (converted)
Sequence of FGFR4 (h) (P22455 22-802): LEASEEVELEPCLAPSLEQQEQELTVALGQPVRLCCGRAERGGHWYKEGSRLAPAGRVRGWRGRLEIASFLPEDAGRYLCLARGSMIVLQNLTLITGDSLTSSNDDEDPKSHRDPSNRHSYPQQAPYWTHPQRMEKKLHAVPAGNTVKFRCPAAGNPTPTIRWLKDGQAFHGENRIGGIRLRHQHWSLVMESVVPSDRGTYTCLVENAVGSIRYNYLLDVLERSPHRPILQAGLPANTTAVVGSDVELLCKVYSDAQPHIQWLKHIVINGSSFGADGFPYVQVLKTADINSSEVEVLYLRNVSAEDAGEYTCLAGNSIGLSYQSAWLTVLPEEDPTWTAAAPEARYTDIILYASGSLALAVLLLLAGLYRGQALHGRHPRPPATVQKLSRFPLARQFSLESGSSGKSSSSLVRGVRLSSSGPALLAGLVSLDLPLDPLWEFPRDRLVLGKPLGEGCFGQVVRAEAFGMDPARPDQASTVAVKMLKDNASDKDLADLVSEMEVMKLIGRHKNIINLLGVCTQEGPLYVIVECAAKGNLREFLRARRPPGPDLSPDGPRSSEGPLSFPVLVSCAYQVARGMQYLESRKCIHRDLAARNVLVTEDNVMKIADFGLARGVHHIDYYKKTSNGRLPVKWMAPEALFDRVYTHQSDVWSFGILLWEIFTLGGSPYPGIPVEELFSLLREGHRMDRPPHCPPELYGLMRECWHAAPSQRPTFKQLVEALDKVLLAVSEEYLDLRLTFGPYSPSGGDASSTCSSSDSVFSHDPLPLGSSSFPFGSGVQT
Protocol: (§1) In a final reaction volume of 30 μL, FGFR4 (h) (60 ng/ml) was incubated with 50 mM HEPES pH 7.5, 6 mM MnCl2, 1 mM DTT, 0.1 mM Na3VO4, 0.01% Triton-X-100, 500 nM Btn-Flt3 and 5 μM ATP in the presence of compound (1% DMSO final). […] Time-Resolved Fluorescence Resonance Energy Transfer (TR-FRET) signal (ex340 nm. Em 620 nm, em 655 nm) was measured afterwards and results are expressed in RFU (Relative Fluorescence Units).

FGFR1 (h) = FGFR1 (h) (Homo sapiens, UniProt P11362); experiment: FGFR1 (enzymatic assay), TR-FRET; assay type: biochemical; details: read-out: FGFR 1 pIC50 (converted)
Sequence of FGFR1 (h) (P11362 22-822): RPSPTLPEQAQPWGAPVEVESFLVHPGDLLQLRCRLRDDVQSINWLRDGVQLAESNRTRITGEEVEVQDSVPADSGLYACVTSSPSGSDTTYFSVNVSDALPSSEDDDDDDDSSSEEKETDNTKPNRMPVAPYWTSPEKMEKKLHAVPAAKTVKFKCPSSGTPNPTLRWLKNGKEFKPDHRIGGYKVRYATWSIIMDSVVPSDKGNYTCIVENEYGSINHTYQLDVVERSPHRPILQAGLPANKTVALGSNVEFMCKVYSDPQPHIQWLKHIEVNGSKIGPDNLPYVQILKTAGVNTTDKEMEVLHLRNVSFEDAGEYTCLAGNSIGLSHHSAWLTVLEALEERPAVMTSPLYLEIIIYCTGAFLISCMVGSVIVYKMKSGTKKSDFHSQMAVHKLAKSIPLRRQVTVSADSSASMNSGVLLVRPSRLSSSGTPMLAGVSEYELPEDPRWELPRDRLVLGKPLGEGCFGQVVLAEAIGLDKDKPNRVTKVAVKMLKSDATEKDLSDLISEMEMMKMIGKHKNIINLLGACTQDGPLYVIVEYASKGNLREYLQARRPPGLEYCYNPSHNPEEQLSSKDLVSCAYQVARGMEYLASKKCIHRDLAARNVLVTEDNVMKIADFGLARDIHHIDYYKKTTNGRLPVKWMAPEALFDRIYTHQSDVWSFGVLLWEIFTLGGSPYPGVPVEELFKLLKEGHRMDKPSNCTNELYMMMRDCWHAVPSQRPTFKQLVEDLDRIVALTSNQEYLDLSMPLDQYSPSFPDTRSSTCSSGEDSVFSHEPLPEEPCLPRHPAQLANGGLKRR
Protocol: as §1, with “FGFR1” for “FGFR4”, “(25” for “(60”

[2] = target: Ba/F3-FGFR1-transfected cells (Homo sapiens, UniProt P11362); experiment: Ba/F3-FGFR1 (minus IL3) cellular proliferation assay, Alamar Blue; assay type: cell-based; details: minus IL3, 384 well
Sequence of Ba/F3-FGFR1-transfected cells (P11362 whole entry, change not shown): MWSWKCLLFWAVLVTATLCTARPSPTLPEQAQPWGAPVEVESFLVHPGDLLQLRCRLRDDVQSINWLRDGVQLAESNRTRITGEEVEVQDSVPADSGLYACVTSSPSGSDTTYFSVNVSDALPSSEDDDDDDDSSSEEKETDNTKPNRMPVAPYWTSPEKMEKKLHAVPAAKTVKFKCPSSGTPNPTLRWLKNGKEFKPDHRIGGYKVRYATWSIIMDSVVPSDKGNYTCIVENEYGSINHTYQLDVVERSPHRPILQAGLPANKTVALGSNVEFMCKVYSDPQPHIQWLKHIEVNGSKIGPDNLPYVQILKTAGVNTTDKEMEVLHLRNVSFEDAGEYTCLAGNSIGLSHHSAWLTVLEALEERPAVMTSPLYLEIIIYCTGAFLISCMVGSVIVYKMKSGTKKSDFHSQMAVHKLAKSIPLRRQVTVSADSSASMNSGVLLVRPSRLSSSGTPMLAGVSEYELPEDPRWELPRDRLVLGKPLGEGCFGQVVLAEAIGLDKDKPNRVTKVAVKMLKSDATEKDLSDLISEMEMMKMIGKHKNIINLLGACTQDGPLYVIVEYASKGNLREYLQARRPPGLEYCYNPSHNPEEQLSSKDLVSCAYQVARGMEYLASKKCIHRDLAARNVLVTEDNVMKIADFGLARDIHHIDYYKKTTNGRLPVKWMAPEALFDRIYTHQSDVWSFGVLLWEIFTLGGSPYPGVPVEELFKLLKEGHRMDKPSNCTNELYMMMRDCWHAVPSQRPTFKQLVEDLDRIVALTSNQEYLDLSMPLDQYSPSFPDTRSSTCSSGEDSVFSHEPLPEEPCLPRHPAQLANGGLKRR
In short: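 First, compound was dispensed and cells added at 20000/well, or 10000/well in the larger-well version. Next came a 24 h incubation at 37 °C. Finally, resazurin reagent was applied for 4 h before fluorescence measurement at 540/590 nm.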

| Structure (SMILES) | IC50 (KDR (h) (VEGFR2)) | IC50 (FGFR4 (h)) | IC50 (FGFR1 (h)) | BAF3-FGFR 1 (MIN IL3) 384 well pIC50 [2] | IC50 ([1]; plus 10 ng/ml murine IL3) | BAF3-FLT3 (PLUS IL3) 384 well pIC50 ([1]; plus 10 ng/ml murine IL3) | IC50 ([1]; plus IL3, 384 well) |
| --- | --- | --- | --- | --- | --- | --- | --- |
| COCCCN(c1cc(OC)cc(OC)c1)c1ccc2ncc(-c3ccn(C)c3)nc2c1 [Compound 3] | 126 nM | 38.9 nM | 7.76 nM | 5.91 | > 10000 nM |  |  |
| COCCN(c1cc(OC)cc(OC)c1)c1ccc2ncc(-c3ccn(C)c3)nc2c1 [Compound 6] | 107 nM | 24.5 nM | 4.37 nM | 5.84 | > 10000 nM |  |  |
| COc1cc(OC)cc(N(CCNC(C)C)c2ccc3ncc(-c4ccn(C)c4)nc3c2)c1 [Compound 8] | 20 nM | 3.47 nM | 0.457 nM | 8.13 | > 10000 nM |  |  |
| COc1cc(OC)cc(N(CCO)c2ccc3ncc(-c4cccnc4)nc3c2)c1 [Compound 9] | 295 nM | 52.5 nM | 10 nM | 6.25 | > 10000 nM |  |  |
| COc1cc(OC)cc(N(CCNC(C)C)c2ccc3ncc(-c4cccnc4)nc3c2)c1 [Compound 10] | 295 nM | 23.4 nM | 2.75 nM | 7.55 | 9330 nM |  |  |
| COc1cc(OC)cc(N(CCO)c2ccc3ncc(-c4ccncc4)nc3c2)c1 [Compound 11] | 269 nM | 41.7 nM | 8.13 nM | 6.01 | > 10000 nM |  |  |
| COc1cc(OC)cc(N(CCNC(C)C)c2ccc3ncc(-c4ccncc4)nc3c2)c1 [Compound 12] | 95.5 nM | 20.4 nM | 2.14 nM | 7.27 | > 10000 nM |  |  |
| CNC(=O)c1cc(-c2cnc3ccc(N(CCNC(C)C)c4cc(OC)cc(OC)c4)cc3n2)ccn1 [Compound 14] | 490 nM | 41.7 nM | 6.17 nM | 6.61 | > 10000 nM |  |  |
| COc1cc(OC)cc(N(CCNC(C)C)c2ccc3ncc(-c4ccc(N)nc4)nc3c2)c1 [Compound 17] | 94.4 nM | 8.04 nM | 1.23 nM | 6.975 | > 9550 nM |  |  |
| COc1cc(OC)cc(N(CC2CC2)c2ccc3ncc(-c4ccnn4C)nc3c2)c1 [Compound 18] | > 10000 nM |  |  |  | > 10000 nM |  |  |
| COc1cc(OC)cc(N(CC2CC2)c2ccc3ncc(-c4ccc5c(ccn5C)c4)nc3c2)c1 [Compound 20] | > 10000 nM |  |  |  |  |  | > 10000 nM |
| COc1cc(OC)cc(N(CC2CC2)c2ccc3ncc(-c4cn(C)cn4)nc3c2)c1 [Compound 21] | 708 nM |  |  |  | > 10000 nM |  |  |

More lines, main results first:

| IC50 (KDR (h) (VEGFR2)) | IC50 (FGFR4 (h)) | IC50 (FGFR1 (h)) | BAF3-FGFR 1 (MIN IL3) 384 well pIC50 [2] | Structure (SMILES) | IC50 ([1]; plus 10 ng/ml murine IL3) | BAF3-FLT3 (PLUS IL3) 384 well pIC50 ([1]; plus 10 ng/ml murine IL3) | IC50 ([1]; plus IL3, 384 well) |
| --- | --- | --- | --- | --- | --- | --- | --- |
| > 1000 nM |  |  |  | COc1cc(OC)cc(N(CC(OC(C)=O)C(F)(F)F)c2ccc3ncc(-c4cccnc4)nc3c2)c1 (single isomer, unassigned) [Compound 45] | > 10000 nM |  |  |
| 363 nM |  |  |  | COc1cc(OC)cc(N(CC(O)C(F)(F)F)c2ccc3ncc(-c4cccnc4)nc3c2)c1 (single isomer, unassigned) [Compound 53] | > 10000 nM |  |  |
| 794 nM |  |  |  | COc1cc(OC)cc(N(CC(O)C(F)(F)F)c2ccc3ncc(-c4cccnc4)nc3c2)c1 (single isomer, unassigned) [Compound 54] |  | <5 |  |
| 676 nM |  |  |  | COc1cc(OC)cc(N(CC2CC2)c2ccc3ncc(-c4cc[nH]c4)nc3c2)c1 [Compound 36] | > 10000 nM |  |  |
| 151 nM |  |  |  | COc1cc(OC)cc(N(CC2CC2)c2ccc3ncc(-c4ccn(CCO)c4)nc3c2)c1 [Compound 56] | > 10000 nM |  |  |
| > 1000 nM |  |  |  | COc1cc(OC)cc(N(CC2CC2)c2ccc3ncc(Nc4cnn(C)c4)nc3c2)c1 [Compound 61] | > 10000 nM |  |  |
| > 1000 nM |  |  |  | COc1cc(OC)cc(N(CC2CC2)c2ccc3ncc(-c4cnn(C)n4)nc3c2)c1 [Compound 70] | > 10000 nM |  |  |
| 813 nM |  |  |  | COc1cc(OC)cc(N(CC2CC2)c2ccc3ncc(-c4cn(C)nn4)nc3c2)c1 [Compound 71] | > 10000 nM |  |  |
| 295 nM |  |  |  | COc1cc(OC)cc(N(CC2CC2)c2ccc3ncc(-c4ccn(C)c4)nc3c2)c1 [Compound 73] | > 10000 nM |  |  |
